Like-named read-outs stand apart in the source and are kept apart here.
Columns and labels:
[1] = test system: carrageenan-induced edema; test: Inhibitory effect on carrageenan-induced edema; type: in vivo, Wistar male rats; conditions: Rattus norvegicus
Protocol: Five Wistar male rats weighing about 150 g. were used as one group. A 1% dispersion of carrageenan was injected intracutaneously into the foot pad of the right hind foot in a dose of 0.1 ml./rat. The compounds to be tested were orally administered to the rats fasted for 15 hours one hour before the carrageenan injection, or intravenously administered 2 hours […] the carrageenan injection. The volume of the foot subjected to the injection was measured by a mercury plethysmography 3 hours after the carrageenan injection on the test by oral route or 2 hours after the carrageenan injection on the test by intravenous route, and the carrageenan-induced edema was estimated from the obtained measurements.

[2] = Gastric ulceration (gastric irritation test); parameters: species or system Wistar male rats; conditions: rat, in vivo, po, read-out: UD50
Protocol: Five Wistar male rats weighing about 150 g. were used as one group. The rats were fasted for 24 hours before the test.
Six hours after orally administration of the present compounds to be tested, there was observed an existence of gastric ulcer by the method of Okabe et al (Ohyoyakuri, 16, 241 to 247 (1978)). The UD50 values were calculated from the ulcer incidence of gastric ulcer by the method of Litchfield-Wilcoxon.

[3] = Hydrolysis of FP derivatives in rat plasma; type: in vitro ADME; conditions: Table 4; rat plasma (Compound Nos. 8 to 13), 37° C., one hour; read-out: Hydrolyzing rate
Protocol: (§1) Each reaction mixture was incubated at 37° C. for one hour.
(§2) The free FP formed by esterase in the plasma was extracted with benzene. After treating the extract with N,O-bis(trimethylsilylacetamide) for trimethylsilylation, the obtained material was determined by gas-liquid chromatography.

Acute toxicity = test: Acute toxicity; parameters: species or system male SLC-ddY mice; conditions: mouse, in vivo, po
[4] = Hydrolysis of FP derivatives in human plasma; type: in vitro ADME; conditions: 37° C., one hour, read-out: Hydrolyzing rate
Protocol: as §1, §2

[5] = Table 1, orally in rats, 50% ulcerative dose
[6] = Table 3, rats, orally, six hours after administration
[7] = Table 1, orally in mice, 50% lethal dose
[8] = Table 5, mice, orally, observation for 2 weeks
[9] = human, plasma, Table 1, human plasma
[10] = human, plasma, Table 4, human plasma (Compound Nos. 1 to 7)

Compound | ED50 ([1]; po, 1 h, read-out: ED50 p.o.) [mg/kg] | ED50 ([1]; po, read-out: ED50 p.o.) [mg/kg] | TD50 at 6 h [2, 5] [mg/kg] | TD50 at 6 h [2, 6] [mg/kg] | metabolised at 1 h [3] [%] | LD50 at 336 h (Acute toxicity; [7]) [mg/kg] | LD50 at 336 h (Acute toxicity; [8]) [mg/kg] | ED50 ([1]; po, 1 h, Table 1, rats, orally, one hour before carrageenan injection, read-out: ED50 p.o.) [mg/kg] | ED50 ([1]; po, Table 2, rats, orally one hour before carrageenan injection, measured 3 hours after carrageenan, read-out: ED50 p.o.) [mg/kg] | metabolised at 1 h ([4]; Table 4, human plasma (Compound Nos. 1 to 7)) [%] | ED50 ([1]; iv, 2 h, read-out: ED50 i.v.) [mg/kg] | metabolised at 1 h [4, 9] [%] | metabolised at 1 h [4, 10] [%]
CC(C)=CCCC(C)=CC(=O)OCCOC(=O)C(C)c1ccc(-c2ccccc2)c(F)c1 (stereo not shown) [Compound No. 13, 2-(3,7-dimethyl-2,6-octadienoyloxy)ethyl 2-(2-fluoro-4-biphenylyl)propionate] | 0.9 | 0.9 | 3 | 3 | 101 | 750 | 750 |  |  |  |  |  | 
CC=CC=CC(=O)OCCOC(=O)C(C)c1ccc(-c2ccccc2)c(F)c1 (stereo not shown) [Compound No. 12, 2-(2,4-hexadienoyloxy)ethyl 2-(2-fluoro-4-biphenylyl)propionate] | 0.9 | 0.9 | 3 | 3 | 100 | 750 | 750 |  |  |  |  |  | 
CC(C)=CC(=O)OCCOC(=O)C(C)c1ccc(-c2ccccc2)c(F)c1 (stereo not shown) [Compound No. 11, 2-(3,3-dimethylacryloyloxy)ethyl 2-(2-fluoro-4-biphenylyl)propionate] | 1 | 1 | 3 | 3 | 99.8 | 880 | 880 |  |  |  |  |  | 
CC(=O)OCCOC(=O)C(C)c1ccc(-c2ccccc2)c(F)c1 (stereo not shown) [Compound No. 8, 2-(acetoxy)ethyl 2-(2-fluoro-4-biphenylyl)propionate] | 0.7 | 0.7 | 2 | 2 | 101 | 650 | 650 |  |  |  |  |  | 
COc1ccc2c(c1)c(CC(=O)OCC(=O)O)c(C)n2C(=O)c1ccc(Cl)cc1 [acemethacin, reference compound] |  |  |  |  |  | 18 | 18 | 8.3 | 8.3 | 4.2 |  |  | 
CC(C)C(=O)OCOC(=O)C(C)c1ccc(-c2ccccc2)c(F)c1 (stereo not shown) [Compound No. 3, isobutyryloxymethyl 2-(2-fluoro-4-biphenylyl)propionate] | 0.6 | 0.6 | 2 | 2 |  | 600 | 600 |  |  |  | 0.1 | 86.3 | 86.3
CCC(=O)OCOC(=O)C(C)c1ccc(-c2ccccc2)c(F)c1 (stereo not shown) [Compound No. 2, propionyloxymethyl 2-(2-fluoro-4-biphenylyl)propionate] | 0.5 | 0.5 | 2.5 | 2.5 |  | 750 | 750 |  |  |  | 0.07 | 94.6 | 94.6
CC(C(=O)O)c1ccc(-c2ccccc2)c(F)c1 (stereo not shown) [FP, 2-(2-fluoro-4-biphenylyl)propionic acid, reference compound] | 0.8 | 0.8 | 1 | 1 |  | 440 | 440 |  |  |  | 0.3 |  | 
CC(C(=O)OCOC(=O)C(C)(C)C)c1ccc(-c2ccccc2)c(F)c1 (stereo not shown) [Compound No. 7, pivaloyloxymethyl 2-(2-fluoro-4-biphenylyl)propionate] | 0.6 | 0.6 | 2.5 | 2.5 |  | 840 | 840 |  |  |  | 0.1 | 70.3 | 70.3
COc1ccc2c(c1)c(CC(=O)O)c(C)n2C(=O)c1ccc(Cl)cc1 [indomethacin, reference compound] | 5.5 | 5.5 | 5 | 5 |  | 14 | 14 |  |  |  | 1.25 |  | 
C/C=C/C(=O)OCCOC(=O)C(C)c1ccc(-c2ccccc2)c(F)c1 (stereo not shown) [Compound No. 10, 2-(crotonoyloxy)ethyl 2-(2-fluoro-4-biphenylyl)propionate] | 0.9 | 0.9 | 3 | 3 | 99.5 | 800 | 800 |  |  |  |  |  | 
CCC(=O)OCCOC(=O)C(C)c1ccc(-c2ccccc2)c(F)c1 (stereo not shown) [Compound No. 9, 2-(propionyloxy)ethyl 2-(2-fluoro-4-biphenylyl)propionate] | 0.7 | 0.7 | 2 | 2 | 98.9 | 700 | 700 |  |  |  |  |  | 
CCCCCCCCCCCCCCCC(=O)OCOC(=O)C(C)c1ccc(-c2ccccc2)c(F)c1 (stereo not shown) [Compound No. 6, palmitoyloxymethyl 2-(2-fluoro-4-biphenylyl)propionate] | 1.5 | 1.5 | 5 | 5 |  | 1000 | > 1000 |  |  |  | 0.5 | 3.8 | 3.8
C/C=C/C(=O)OCOC(=O)C(C)c1ccc(-c2ccccc2)c(F)c1 (stereo not shown) [Compound No. 4, crotonoyloxymethyl 2-(2-fluoro-4-biphenylyl)propionate] | 0.6 | 0.6 | 2 | 2 |  | 600 | 600 |  |  |  | 0.08 | 81.4 | 81.4
CC(C)=CC(=O)OCOC(=O)C(C)c1ccc(-c2ccccc2)c(F)c1 (stereo not shown) [Compound No. 5, 3,3-dimethylacryloyloxymethyl 2-(2-fluoro-4-biphenylyl)propionate] | 0.5 | 0.5 | 2 | 2 |  | 900 | 900 |  |  |  | 0.06 | 64.8 | 115
CC(=O)OCOC(=O)C(C)c1ccc(-c2ccccc2)c(F)c1 (stereo not shown) [Compound No. 1, acetoxymethyl 2-(2-fluoro-4-biphenylyl)propionate] | 0.5 | 0.5 | 3.7 | 3.6 |  | 880 | 880 |  |  |  | 0.08 | 97.5 | 97.5
